# Test results as given in article PMC5464344, “Analgesic and anti‐inflammatory properties of novel, selective, and potent EP4 receptor antagonists” (Pharmacology Research & Perspectives, 2017).
# Where two headings read alike, the source gives them in different places.
# Assays:
# human EP2 receptor = target: T1, human EP2 receptor (Homo sapiens, UniProt P43116); assay: [3H]-PGE2 receptor binding assay, EP2 membranes
# T1 construct: host or cells: HEK293, transient; membrane preparation
# Procedure: (§1) Receptor binding assays were done using membrane preparations of HEK 293 cells transfected with various prostanoid receptors using previously published procedure (Nakao et al. 2007). EP1 and EP4 membranes were prepared from recombinant HEK293 cells stably expressing human EPl receptor (GenBank Accession # AY275470, Clone ID PER0100000, UMR cDNA Resource Center, Rolla, MO) or human EP4 receptor. EP2 and EP3 membranes were prepared from HEK293 cells transiently transfected with human EP2 receptor (GenBank Accession # AY275471, Clone ID PER0200000, UMR cDNA Resource Center, Rolla, MO) or human EP3 receptor (GenBank Accession # AY429108, Clone ID PER3VI0000, UMR cDNA Resource Center, Rolla, MO) plasmids. Frozen cell pellets were homogenized in homogenization buffer (10 mmol/L Tris‐HCl, pH7.4, 250 mmol/L sucrose, 1 mmol/L EDTA, 0.3 mmol/L indomethacin and protease inhibitor cocktail with EDTA (Roche Molecular Biochemicals, catalog # 1691498)) using a Teflon/glass homogenizer. After a low speed centrifugation (200g for 15 min at 4°C) the supernatant was subjected to high speed centrifugation (30,000g for 60 min at 4°C). Membrane protein preparation was aliquoted and quick frozen on dry ice prior to storage at −80°C. […] Compounds were tested in a 96‐well format using a three‐fold dilution series to generate 10‐point curves. […] The binding reaction was performed in 200 μL MES buffer (10 mmol/L MES, pH 6.0, 10 mmol/L MgCl2, and l mmol/L EDTA) using polystyrene 96‐well plates. […] The membranes were harvested by filtration (TomTek harvester), washed four times with cold buffer (10 mmol/L MES, pH 6.0, 10 mmol/L MgCl2), dried in a 60°C oven, and the radioactivity was quantified as counts per min (CPM) using a TopCount detector. […] Data were analyzed using a 4‐parameter nonlinear logistic equation. K i Conversion from IC50 Values (K i = […] where [L] is the ligand concentration). Results are expressed as the geometric mean ± standard deviation or geometric mean ± standard error as noted.
# [1] = tested on: PGE2 Inhibited TNFα in human whole blood; assay: Human whole blood assay (Reversal of PGE2 Inhibited TNFα); format: cell-based; conditions: for times more potent than reference EP4 antagonists (whole blood assay): PGE2 mediated TNF-α
# Procedure: Blood was collected from normal volunteer donors into sodium heparin vacutainer tubes. Donors had not taken glucocorticoids within 2 weeks of the donation. […] The plates were incubated for 20–24 h at 37 °C, 5% CO2, in a humidified atmosphere. […] Plasma was removed from the cell layer and was transferred to v‐bottom polypropylene plates. […] The plates were read at A450‐A650 on a plate reader (Molecular Devices Versamax) using SOFTmaxPRO (v. 4.3.I) software. IC50s were calculated using Graphpad Prism (v. 4) nonlinear regression, sigmoidal dose response curve fitting. Results are expressed as the geometric mean ± SD.
# human EP3 receptor = target: T2, human EP3 receptor (Homo sapiens, UniProt P43115); assay: [3H]-PGE2 receptor binding assay, EP3 membranes; conditions: HEK293 membranes, geometric mean ± SEM, read-out: hEP1-4 receptor binding EP3 Ki
# T2 sequence (P43115 1-359 limits assumed): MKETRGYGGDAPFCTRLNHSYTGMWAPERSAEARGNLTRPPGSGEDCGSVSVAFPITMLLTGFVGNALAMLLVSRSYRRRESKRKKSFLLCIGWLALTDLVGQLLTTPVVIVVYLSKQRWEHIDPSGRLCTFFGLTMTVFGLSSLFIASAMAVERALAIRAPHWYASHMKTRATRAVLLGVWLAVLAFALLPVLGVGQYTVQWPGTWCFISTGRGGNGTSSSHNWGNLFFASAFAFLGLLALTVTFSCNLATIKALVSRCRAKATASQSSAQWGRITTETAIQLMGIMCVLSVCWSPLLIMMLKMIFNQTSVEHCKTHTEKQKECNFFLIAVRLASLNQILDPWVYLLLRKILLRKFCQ
# Procedure: as §1
# Human EP4 = Human EP4 (Homo sapiens, UniProt P35408); assay: EP4 cAMP antagonist assay (HTRF), human EP4; format: cell-based; conditions: read-out: cAMP Antagonism (hEP4) Human EP4 IC50
# Chain of Human EP4 (P35408 whole entry): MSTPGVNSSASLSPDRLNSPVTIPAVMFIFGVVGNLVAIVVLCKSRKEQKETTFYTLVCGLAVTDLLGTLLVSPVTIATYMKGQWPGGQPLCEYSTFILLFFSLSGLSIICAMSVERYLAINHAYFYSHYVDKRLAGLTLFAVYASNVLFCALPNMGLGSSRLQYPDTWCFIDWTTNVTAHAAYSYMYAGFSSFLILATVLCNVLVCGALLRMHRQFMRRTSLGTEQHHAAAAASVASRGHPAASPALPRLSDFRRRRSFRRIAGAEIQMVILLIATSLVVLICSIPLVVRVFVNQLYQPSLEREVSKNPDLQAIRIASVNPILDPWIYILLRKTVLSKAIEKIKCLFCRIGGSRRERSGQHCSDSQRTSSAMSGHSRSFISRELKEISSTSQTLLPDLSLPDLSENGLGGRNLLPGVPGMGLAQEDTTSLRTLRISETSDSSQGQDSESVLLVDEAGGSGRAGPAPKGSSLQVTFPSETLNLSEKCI
# Procedure: Human EP4 (GenBank Accession # AY429109, Clone ID PER0400000, UMR cDNA Resource Center, Rolla, MO) was stably expressed in HEK293 cells. Rat EP4 cDNA (GenBank Accession# NM_03276) was cloned into pcDNA 3.1 vector and stably transfected into HEK293 cells. The cell lines were maintained in DMEM (invitrogen) supplemented with 10% fetal bovine serum (FBS), 1 mmol/L sodium pyruvate, 10 mmol/L HEPES, 500 μg/mL geneticin and 2 mmol/L L‐glutamine. Confluent cultures were grown at 37°C in an atmosphere containing 5% CO2. […] Immediately prior to the assay, cells were thawed with DMEM and suspended in cAMP assay buffer (HBSS with 0.1% BSA, 20 mmol/L HEPES and 200 μmol/L IBMX).
# To measure the cAMP levels, cAMP‐d2 conjugate and anti cAMP‐cryptate conjugate in lysis buffer were incubated with the treated cells at room temperature for 1 h. […] The raw data were converted to cAMP (nmol/L) using a cAMP standard curve generated for each experiment. Data were analyzed using a 4‐parameter nonlinear logistic equation. Results are expressed as the geometric mean ± standard deviation or geometric mean ± standard error as noted.
# [2] = HEK293 membranes, [3H]-PGE2, geometric mean ± SEM, read-out: hEP1-4 receptor binding EP2 Ki
# T1 sequence (P43116 whole entry): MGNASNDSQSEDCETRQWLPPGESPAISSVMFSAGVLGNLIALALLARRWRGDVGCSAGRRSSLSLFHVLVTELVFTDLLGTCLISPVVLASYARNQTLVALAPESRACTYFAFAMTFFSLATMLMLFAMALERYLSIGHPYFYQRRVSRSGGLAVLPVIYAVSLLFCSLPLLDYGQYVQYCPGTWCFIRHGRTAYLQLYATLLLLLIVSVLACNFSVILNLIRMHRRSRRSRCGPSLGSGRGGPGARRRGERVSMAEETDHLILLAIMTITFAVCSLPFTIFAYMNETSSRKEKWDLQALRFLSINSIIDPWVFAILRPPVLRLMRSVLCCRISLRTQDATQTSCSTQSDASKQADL
SMILES,Ki (human EP2 receptor; [2]) [nM],Ki (human EP2 receptor; read-out: Ki for EP2 receptor) [nM],times more potent than reference EP4 antagonists (whole blood assay) ([1]; human whole blood),Ki (human EP3 receptor) [µM],IC50 (Human EP4) [nM],"reversal of PGE2 suppression of LPS stimulated TNF‐α production ([1]; human whole blood, various concentrations (Fig. 5A))","IC50 ([1]; read-out: Human whole blood (Reversal of PGE2 Inhibited TNFα) IC50, 10 μg/ml LPS + 10 nmol/L PGE2, 20–24 h, geometric mean ± SD) [nM]","IC50 (Human EP4; HEK293 cells stably expressing human EP4, PGE2 at EC80, geometric mean ± SEM) [nM]"
C[C@H](NC(=O)[C@H]1CCCCN1CCOc1ccccc1)c1ccc(C(=O)O)cc1 [Compound 2],1210 ± 509,1200,5–10 times,> 14,–,–,–,–
"C[C@H](NC(=O)c1cc(Cl)ccc1Oc1ccc(F)cc1)c1ccc(C(=O)O)cc1 [CJ‐042,794, reference compound]",931 ± 457,–,–,> 15.5,4.5 ± 1.85,reversed,–,–
Cc1ccc(N2CCC(O)CC2)nc1C(=O)Nc1c(C)cc(C(=O)O)cc1C [Compound 1],–,–,5–10 times,–,~6,–,123 ± 80,–
Cc1ccc(-c2cccc(CO)c2)nc1C(=O)Nc1c(C)ccc(C(=O)O)c1C [Compound 3],> 18900,–,–,> 14,–,–,–,2.4 ± 1.4
